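Tested at 5 concentrations; 48 h exposure; 96-well plates; endpoints linearly interpolated, else capped at highest concentration. TGI: total growth inhibition.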
What was measured:
Assay in all cases: growth of human tumour cells (NCI), 48 h
A549 NSCLC = system: A549 NSCLC
MDA-N = system: MDA-N
SR leukemia = system: SR leukemia
U251 CNS = system: U251 CNS
HL-60(TB) leukemia = system: HL-60(TB) leukemia
MCF7 breast = system: MCF7 breast
OVCAR-5 ovarian = system: OVCAR-5 ovarian
MDA-MB-435 = system: MDA-MB-435
SK-MEL-28 melanoma = system: SK-MEL-28 melanoma
SNB-75 CNS = system: SNB-75 CNS
HOP-62 NSCLC = system: HOP-62 NSCLC
NCI/ADR-RES ovarian = system: NCI/ADR-RES ovarian
HS 578T breast = system: HS 578T breast
EKVX NSCLC = system: EKVX NSCLC
MALME-3M melanoma = system: MALME-3M melanoma
T-47D breast = system: T-47D breast
CAKI-1 renal = system: CAKI-1 renal
CCRF-CEM leukemia = system: CCRF-CEM leukemia
TK-10 renal = system: TK-10 renal
IGROV1 ovarian = system: IGROV1 ovarian

| SMILES | TGI (A549 NSCLC) [µM] | TGI (MDA-N) [µM] | TGI (SR leukemia) [µM] | TGI (U251 CNS) [µM] | TGI (HL-60(TB) leukemia) [µM] | TGI (MCF7 breast) [µM] | TGI (OVCAR-5 ovarian) [µM] | TGI (MDA-MB-435) [µM] | TGI (SK-MEL-28 melanoma) [µM] | TGI (SNB-75 CNS) [µM] | TGI (HOP-62 NSCLC) [µM] | TGI (NCI/ADR-RES ovarian) [µM] | TGI (HS 578T breast) [µM] | TGI (EKVX NSCLC) [µM] | TGI (MALME-3M melanoma) [µM] | TGI (T-47D breast) [µM] | TGI (CAKI-1 renal) [µM] | TGI (CCRF-CEM leukemia) [µM] | TGI (TK-10 renal) [µM] | TGI (IGROV1 ovarian) [µM] |
| --- | --- | --- | --- | --- | --- | --- | --- | --- | --- | --- | --- | --- | --- | --- | --- | --- | --- | --- | --- | --- |
| COCCOCc1nc(C#N)c(N)o1 | > 100 | > 100 | > 100 | > 100 | > 100 | > 100 | > 100 | > 100 | > 100 | > 100 | > 100 | > 100 | > 100 | > 100 | > 100 | > 100 | > 100 | > 100 | > 100 | > 100 |
| CNn1c(-c2ccccc2)n[nH]c1=O | > 100 | > 100 | > 100 | > 100 | > 100 | > 100 | > 100 | > 100 | > 100 | > 100 | > 100 | > 100 | > 100 | > 100 | > 100 | > 100 | > 100 | > 100 | > 100 | > 100 |
| Nc1nc(N)c2[nH]c(CNc3ccc(C(=O)O)cc3)nc2n1 | > 100 | > 100 | > 100 | > 100 | > 100 | > 100 | > 100 | > 100 | > 100 | > 100 | > 100 | > 100 | > 100 | > 100 | > 100 | > 100 | > 100 | > 100 | > 100 | > 100 |
| O=[N+]([O-])c1ccc(Cl)c(C=NC23CC4CC(CC(C4)C2)C3)c1 | > 10 | > 10 | > 10 | > 10 | 4.46 | > 10 | > 10 | > 10 | > 10 | > 10 | > 10 | > 10 | > 10 | > 10 | > 10 | > 10 | > 10 | > 10 | > 10 | > 10 |
